Test results published in PubChem BioAssay AID196 (DTP/NCI, 2004).
Where “and” joins values, the source holds several entries; their conditions need not be identical. Equal values may be shown once. Inconclusive results and toxic doses are left out.

System: BDF1 mice, intracerebral B16 melanoma, median survival T/C
Test: NCI In Vivo Anticancer Drug Screen. Data for tumor model B16 Melanoma (intracerebral) in B6D2F1 (BDF1) mice
Conditions: endpoint: median survival time, higher = longer survival
Description: The antitumor activity of compounds was measured in mice bearing transplantable tumors. Survival or tumor size were measured and the results are expressed as the measurement made in the treated group (T) divided by the measurement made in the vehicle treated control group (C). The tumor model used in this assay is B16 Melanoma (intracerebral) in B6D2F1 (BDF1) mice

[1] = dose: 128.0 mg/kg/injection, schedule: Q01DX005 (ip), vehicle: saline

COCC(O)Cn1ccnc1[N+](=O)[O-] (centres undefined)
T/C (dose: 128.0 mg/kg/injection, schedule: Q01DX009 (ip), vehicle: Klucel (hydroxypropylcellulose) (HPC)): 89 % of control | T/C (dose: 256.0 mg/kg/injection, schedule: Q01DX009 (ip), vehicle: Klucel (hydroxypropylcellulose) (HPC)): 86 % of control

COS(C)(=O)=O
T/C (dose: 16.0 mg/kg/injection, schedule: Q01DX005 (ip), vehicle: saline): 89 % of control | T/C (dose: 32.0 mg/kg/injection, schedule: Q01DX005 (ip), vehicle: saline): 100 % of control | T/C (dose: 64.0 mg/kg/injection, schedule: Q01DX005 (ip), vehicle: saline): 95 % of control | T/C [1]: 106 % of control

CN(C)N=Nc1cccc2c1N(C)c1ccc(Cl)cc1S2
T/C (dose: 6.25 mg/kg/injection, schedule: Q01DX009 (ip), vehicle: other): 103 % of control | T/C (dose: 12.5 mg/kg/injection, schedule: Q01DX009 (ip), vehicle: other): 100 % of control | T/C (dose: 25.0 mg/kg/injection, schedule: Q01DX009 (ip), vehicle: other): 108 % of control | T/C (dose: 50.0 mg/kg/injection, schedule: Q01DX009 (ip), vehicle: other): 101 % of control | T/C (dose: 100.0 mg/kg/injection, schedule: Q01DX009 (ip), vehicle: other): 101 % of control

Nc1n[nH]c(N)n1
T/C [1]: 95 % of control and 111 % of control | T/C (dose: 256.0 mg/kg/injection, schedule: Q01DX005 (ip), vehicle: saline): 97 % of control and 106 % of control | T/C (dose: 512.0 mg/kg/injection, schedule: Q01DX005 (ip), vehicle: saline): 116 % of control and 103 % of control | T/C (dose: 1024.0 mg/kg/injection, schedule: Q01DX005 (ip), vehicle: saline): 118 % of control and 93 % of control

COc1cc(NS(C)(=O)=O)ccc1Nc1c2ccccc2nc2ccccc12
T/C (dose: 0.5 mg/kg/injection, schedule: Q01DX009 (ip), vehicle: distilled water + Tween-80): 88 % of control | T/C (dose: 1.0 mg/kg/injection, schedule: Q01DX009 (ip), vehicle: distilled water + Tween-80): 116 % of control | T/C (dose: 2.0 mg/kg/injection, schedule: Q01DX009 (ip), vehicle: distilled water + Tween-80): 109 % of control | T/C (dose: 4.0 mg/kg/injection, schedule: Q01DX009 (ip), vehicle: distilled water + Tween-80): 101 % of control | T/C (dose: 5.0 mg/kg/injection, schedule: Q04DX003 (ip), vehicle: Klucel (hydroxypropylcellulose) (HPC)): 94 % of control | T/C (dose: 5.0 mg/kg/injection, schedule: Q04DX003 (ip), vehicle: saline): 108 % of control | T/C (dose: 8.0 mg/kg/injection, schedule: Q01DX009 (ip), vehicle: distilled water + Tween-80): 97 % of control | T/C (dose: 10.0 mg/kg/injection, schedule: Q04DX003 (ip), vehicle: saline): 112 % of control

O=NN(CCCl)C(=O)NC1CCC(=O)NC1=O (centres undefined)
T/C (dose: 0.5 mg/kg/injection, schedule: Q01DX009 (ip), vehicle: saline with Tween-80): 108 % of control | T/C (dose: 2.0 mg/kg/injection, schedule: Q01DX009 (ip), vehicle: saline with Tween-80): 153 % of control | T/C (dose: 4.0 mg/kg/injection, schedule: Q01DX009 (ip), vehicle: saline with Tween-80): 202 % of control | T/C (dose: 4.32 mg/kg/injection, schedule: Q01DX001 (ip), vehicle: Klucel (hydroxypropylcellulose) (HPC)): 111 % of control | T/C (dose: 6.48 mg/kg/injection, schedule: Q01DX001 (ip), vehicle: other): 120 % of control | T/C (dose: 7.2 mg/kg/injection, schedule: Q01DX001 (ip), vehicle: Klucel (hydroxypropylcellulose) (HPC)): 122 % of control | T/C (dose: 8.0 mg/kg/injection, schedule: Q01DX009 (ip), vehicle: saline with Tween-80): 337 % of control | T/C (dose: 11.9 mg/kg/injection, schedule: Q01DX001 (ip), vehicle: Klucel (hydroxypropylcellulose) (HPC)): 172 % of control | T/C (dose: 12.0 mg/kg/injection, schedule: Q01DX001 (ip), vehicle: Klucel (hydroxypropylcellulose) (HPC)): 150 % of control | T/C (dose: 16.0 mg/kg/injection, schedule: Q01DX009 (ip), vehicle: saline with Tween-80): 89 % of control | T/C (dose: 17.8 mg/kg/injection, schedule: Q01DX001 (ip), vehicle: Klucel (hydroxypropylcellulose) (HPC)): 201 % of control | T/C (dose: 18.0 mg/kg/injection, schedule: Q01DX001 (ip), vehicle: other): 338 % of control | T/C (dose: 20.0 mg/kg/injection, schedule: Q01DX001 (ip), vehicle: Klucel (hydroxypropylcellulose) (HPC)): 204 % of control | T/C (dose: 26.7 mg/kg/injection, schedule: Q01DX001 (ip), vehicle: Klucel (hydroxypropylcellulose) (HPC)): 187 % of control | T/C (dose: 40.0 mg/kg/injection, schedule: Q01DX001 (ip), vehicle: Klucel (hydroxypropylcellulose) (HPC)): 120 % of control

O=C1C=CN(C2OC(CO)C(O)C2O)C(=O)C1 (centres undefined)
T/C (dose: 12.5 mg/kg/injection, schedule: Q01DX009 (ip), vehicle: saline): 90 % of control | T/C (dose: 25.0 mg/kg/injection, schedule: Q01DX009 (ip), vehicle: saline): 97 % of control | T/C (dose: 50.0 mg/kg/injection, schedule: Q01DX009 (ip), vehicle: saline): 97 % of control | T/C (dose: 100.0 mg/kg/injection, schedule: Q01DX009 (ip), vehicle: saline): 100 % of control | T/C (dose: 200.0 mg/kg/injection, schedule: Q01DX009 (ip), vehicle: saline): 111 % of control | T/C (dose: 400.0 mg/kg/injection, schedule: Q01DX009 (ip), vehicle: saline): 107 % of control
